The values below come from ChEMBL document CHEMBL5518192, “Targeting aromatase to restrain oestrogen production and developing efficacious interventions against ER-positive cancer” (Eur J Med Chem, 2024).

One data set relates to T47D. As to the kind of experiment: cells. The note with it: Homo sapiens, 48 h, read-out: GI.
The test system of a further data set is MDA-MB-468. Briefly: Growth inhibition of estrogen receptor negative human MDA-MB-468 cells at 10 uM incubated for 48 hrs by SRB assay relative to control. Format: functional. The settings on record: read-out: GI. In general terms: In SRB staining, fixed cells bind dye roughly in proportion to their protein.
Data set [1] deals with T1, Aromatase (Homo sapiens, UniProt P11511).
T1 sequence (P11511 whole entry): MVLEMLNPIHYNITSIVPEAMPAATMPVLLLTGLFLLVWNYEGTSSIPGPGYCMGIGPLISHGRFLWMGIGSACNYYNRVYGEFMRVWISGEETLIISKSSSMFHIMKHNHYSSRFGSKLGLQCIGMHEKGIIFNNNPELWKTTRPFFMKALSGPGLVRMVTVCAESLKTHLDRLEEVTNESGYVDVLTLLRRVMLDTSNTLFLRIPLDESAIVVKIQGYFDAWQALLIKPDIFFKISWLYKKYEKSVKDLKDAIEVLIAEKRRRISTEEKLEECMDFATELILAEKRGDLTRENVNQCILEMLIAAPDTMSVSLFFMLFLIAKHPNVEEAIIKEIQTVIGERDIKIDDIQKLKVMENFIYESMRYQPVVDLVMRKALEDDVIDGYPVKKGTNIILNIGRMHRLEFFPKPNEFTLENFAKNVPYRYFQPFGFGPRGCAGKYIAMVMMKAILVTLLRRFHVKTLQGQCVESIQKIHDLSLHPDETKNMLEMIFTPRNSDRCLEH
Briefly: Binding affinity to human aromatase assessed as binding constant by Benesi-Hildebrand equation based analysis.

Another data set deals with MDA-MB-231. Briefly: Growth inhibition of estrogen receptor negative human MDA-MB-231 cells at 10 uM incubated for 48 hrs by SRB assay relative to control. Type of data set: functional. The note with it: read-out: GI.
Data set [2] has as its target T1, Aromatase. Briefly: Binding affinity to human aromatase assessed as change in free energy.
Another data set can be described thus: physchem. The note with it: octanol/water.
The next data set has as its system MCF7. Briefly: cells. The settings on record: Homo sapiens, MCF7, 48 h, read-out: GI.
Data set [3] deals with T1, Aromatase. As to the kind of experiment: Binding affinity to human aromatase assessed as hyperchromic shift by measuring increase in absorbance intensity at 5 uM by UV-Vis spectral analysis.
A further data set can be described thus: in vitro. The settings on record: human, plasma.
Data set [4] deals with T1, Aromatase. As to the kind of experiment: Competitive inhibition of human aromatase using varying concentrations of androstenedione as substrate assessed as […] in Km with constant Vmax at 10 uM by Lineweaver-Burk equation based analysis.
Data set [5] has as its target T1, Aromatase.
Description: Inhibition of human aromatase preincubated for 10 mins followed by NADP+/fluorogenic substrate mixture addition and measured for 60 mins by fluorimetric assay
Another data set deals with Hs-578T. Briefly: cells. The note with it: Homo sapiens, 48 h, read-out: GI.
Data set [6] addresses T2, Albumin (Homo sapiens, UniProt P02768). Briefly: Binding affinity to human serum albumin assessed as binding constant by spectrophotometer. Type of data set: ADME. The settings on record: isolated protein.
For data set [7], the target named is T2, Albumin. Briefly: Binding affinity to human serum albumin phosphate buffer at pH 7.4 assessed as conformational change in HSA by measuring increase in absorbance at 20 uM by UV-Vis absorption spectrum based analysis. Type of data set: ADME. The settings on record: isolated protein, pH 7.4, 20 µM.
The target in data set [8] is T1, Aromatase. Briefly: Binding affinity to human aromatase assessed as inhibition constant by Cheng-Prosuff equation based analysis.
The next data set deals with BT-549. As to the kind of experiment: cells. The note with it: Homo sapiens, BT-549, 48 h, read-out: GI.

T2 sequence (P02768 whole entry): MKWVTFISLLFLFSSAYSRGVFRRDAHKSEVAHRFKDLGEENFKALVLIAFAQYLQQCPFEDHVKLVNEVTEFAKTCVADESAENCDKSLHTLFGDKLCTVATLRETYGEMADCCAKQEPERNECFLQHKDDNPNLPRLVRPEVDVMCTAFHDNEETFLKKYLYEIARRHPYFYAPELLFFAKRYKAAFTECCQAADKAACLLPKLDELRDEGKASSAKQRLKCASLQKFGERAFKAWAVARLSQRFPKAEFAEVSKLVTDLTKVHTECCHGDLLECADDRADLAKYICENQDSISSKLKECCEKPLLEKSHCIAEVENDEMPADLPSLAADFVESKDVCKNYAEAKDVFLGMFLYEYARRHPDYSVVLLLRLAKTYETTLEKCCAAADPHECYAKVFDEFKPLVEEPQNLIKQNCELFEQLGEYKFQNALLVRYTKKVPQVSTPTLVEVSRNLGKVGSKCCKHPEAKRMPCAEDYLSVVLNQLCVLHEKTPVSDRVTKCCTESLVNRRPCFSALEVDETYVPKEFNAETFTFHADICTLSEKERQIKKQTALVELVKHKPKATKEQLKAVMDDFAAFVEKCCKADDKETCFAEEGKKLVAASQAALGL
Description for in vitro: Stability in human plasma assessed drug degradation at 50 uM measured after 120 mins by spectrometer
Description for physchem: Octanol/water partition coefficient, log P of the compound

For orientation: logP means a log measure of how a compound divides between an organic and an aqueous phase. A word on the IC50: it is the concentration that gives 50% inhibition. The Ki is a measure of affinity in units of concentration, obtained from inhibition or displacement. Turning to `CCOC(=O)C(=O)c1cn(CCCCCNc2ccc(C(=C(C)c3ccccc3)c3ccccc3)cc2)c2ccccc12`, the inhibition of growth at 10 µM in the data set with T47D was found to be 30.1%; with MDA-MB-468, 24.3%; in the data set with MDA-MB-231 it was 18.2%; in the data set with MCF7, 8.48%; in the data set with Hs-578T, 6.04%. Moreover, the Ka is recorded as 5.5 10^4/M at Aromatase [1] and 2.8 10^4/M on Albumin [6]. At Aromatase [2], the deltaG is listed as -6.72 kcal/mol. Moreover, the logP in “physchem” turned out to be 4.81. The result on Aromatase [3] and at Albumin [7] was Active. The metabolised at 2 h, 50 µM in the data set “in vitro” came out at 15.5%. Further, the “inhibition (INH)” value at Aromatase [4] is on record as “Active”. At Aromatase [5], the IC50 was 54 nM. Moreover, on Aromatase [8], the Ki came out at 26 nM.
In “physchem”, `C/C(=C(\c1ccccc1)c1ccc(NCCCCCn2cc(C(=O)C(=O)O)c3ccccc32)cc1)c1cccc(Br)c1` registered a log partition coefficient (logP) of 5.33. At Aromatase [5], this compound came in with an IC50 of 800 nM.
Taken in the same sequence, the figures for `COc1ccccc1/C(C)=C(/c1ccccc1)c1ccc(NCCCCCn2cc(C(=O)C(=O)O)c3ccccc32)cc1` were 4.46 and 12300 nM.
`CCOC(=O)C(=O)c1cn(CCCNc2ccc(C(=C(C)c3ccccc3)c3ccccc3)cc2)c2ccccc12`: the inhibition of growth at 10 µM was 41% with T47D, 13.6% in the data set on MDA-MB-231 and 10.9% in the data set with MCF7. In the data set “physchem”, this compound showed a logP of 4.46. Besides, the half-inhibitory concentration (IC50) against Aromatase [5] was 650 nM.
Regarding `CC(=C(c1ccccc1)c1ccc(NCCCCCn2cc(C(=O)C(=O)O)c3ccccc32)cc1)c1ccccc1`, the inhibition of growth at 10 µM was determined as 13% in the data set with T47D, 7.71% with MDA-MB-468 and 12.4% with Hs-578T. Also, in the data set “physchem”, the logP was 4.97. The same compound gave an IC50 on Aromatase [5] of 3170 nM.
`CCOC(=O)C(=O)c1cn(CCCCCNc2ccc(/C(=C(/C)c3ccccc3OC)c3ccccc3)cc2)c2ccccc12` displayed a logP in “physchem” of 4.31. The compound further returned an IC50 against Aromatase [5] of 133 nM.
In “physchem”, `COc1ccccc1/C(C)=C(/c1ccccc1)c1ccc(NCCCCn2cc(C(=O)C(=O)O)c3ccccc32)cc1` registered a logP of 4.29. Also, at Aromatase [5], the IC50 stood at 550 nM.
Turning to `CC(=C(c1ccccc1)c1ccc(NCCCn2cc(C(=O)C(=O)O)c3ccccc32)cc1)c1ccccc1`, the logP in the data set “physchem” was determined as 4.61. The results for the inhibition of growth at 10 µM in the data set on BT-549 and in the data set with Hs-578T were 14.8% and 14.1%, respectively. The compound also gave an IC50 against Aromatase [5] of 178 nM.
`CCOC(=O)C(=O)c1cn(CCCCNc2ccc(/C(=C(/C)c3ccccc3OC)c3ccccc3)cc2)c2ccccc12` registered a logP in the data set “physchem” of 4.13. In addition, at Aromatase [5], the IC50 amounted to 3200 nM.
For the compound `CCOC(=O)C(=O)Nc1ccc(/C(=C(/C)c2ccc(Cl)cc2)c2ccccc2)cc1`, the outcome on Albumin [7] was Active.
In the case of `C/C(=C(\c1ccccc1)c1ccc(NCCCCn2cc(C(=O)C(=O)O)c3ccccc32)cc1)c1cccc(Br)c1`, in the data set “physchem”, the logP is 5.15. The compound further returned an IC50 at Aromatase [5] of 6800 nM.
The like results for `CCOC(=O)C(=O)c1cn(CCCCCCNc2ccc(C(=C(C)c3ccccc3)c3ccccc3)cc2)c2ccccc12` were, in that order, 4.98 and 1940 nM.
As to `CCOC(=O)C(=O)c1cn(CCCCNc2ccc(/C(=C(/C)c3cccc(Br)c3)c3ccccc3)cc2)c2ccccc12`, in the data set “physchem”, the logP came out at 4.99. The IC50 against Aromatase [5] worked out at 3860 nM.
The like results for `CCOC(=O)C(=O)c1cn(CCNc2ccc(C(=C(C)c3ccccc3)c3ccccc3)cc2)c2ccccc12` were, in that order, 4.28 and 1390 nM.
Consider `CC(=C(c1ccccc1)c1ccc(NCCn2cc(C(=O)C(=O)O)c3ccccc32)cc1)c1ccccc1`, for which the inhibition of growth at 10 µM turned out to be 38.9% in the data set on T47D; 55.1% with MDA-MB-468; 13.3% in the data set on MDA-MB-231; 47.3% in the data set on MCF7; 32.5% in the data set with BT-549; 46.4% in the data set with Hs-578T. The same compound showed a logP in “physchem” of 4.43. The same compound yielded an IC50 against Aromatase [5] of 9730 nM.
In turn, `CC(=C(c1ccccc1)c1ccc(NCCCCCCn2cc(C(=O)C(=O)O)c3ccccc32)cc1)c1ccccc1` came in with a logP in the data set “physchem” of 5.15.
`CCOC(=O)C(=O)c1cn(CCCCCNc2ccc(/C(=C(/C)c3cccc(Br)c3)c3ccccc3)cc2)c2ccccc12`: the logP in the data set “physchem” turned out to be 5.16. Also, at Aromatase [5], the midpoint of inhibition, the IC50, lay at 790 nM.
Turning to `CC(=C(c1ccccc1)c1ccc(NCCCCn2cc(C(=O)C(=O)O)c3ccccc32)cc1)c1ccccc1`, the inhibition of growth at 10 µM was 13.7% in the data set on T47D; 12.9% in the data set with MDA-MB-468; 14.3% in the data set with MCF7; 40.2% in the data set on BT-549; 60.2% in the data set with Hs-578T. Also, in “physchem”, the logP came to 4.79. For the same compound, at Aromatase [5], half-maximal inhibition (IC50) required 1370 nM.
For the compound `CCOC(=O)C(=O)c1cn(CCCCNc2ccc(C(=C(C)c3ccccc3)c3ccccc3)cc2)c2ccccc12`, the inhibition of growth at 10 µM in the data set with T47D was determined as 5.76%. In the data set “physchem”, this compound had a lipophilicity (logP) of 4.63. Moreover, it took 500 nM to reach half-maximal inhibition against Aromatase [5] (IC50).
In the case of `CCOC(=O)C(=O)Nc1ccc(/C(=C(/C)c2ccc(OC)cc2)c2ccccc2)cc1`, the outcome at Albumin [7] was Active.
On to `N#Cc1ccc(C(c2ccc(C#N)cc2)n2cncn2)cc1` [LETROZOLE], for which the logP in the data set “physchem” was 2.29.
For the compound `CC/C(=C(\c1ccccc1)c1ccc(OCCN(C)C)cc1)c1ccccc1` [TAMOXIFEN], the inhibition of growth at 10 µM in the data set with MDA-MB-468 was -13.3%; with MDA-MB-231 it was 54.8%; with MCF7, -10.3%; in the data set on BT-549, 30.2%; in the data set with Hs-578T, 39.5%.
